What was measured:
[1] = test system: jimsonweed; test: Postemergent control of plant species; assay type: in vivo, Datura stramonium; settings: for pest or weed control at 500 ppm: Datura stramonium, post-emergence, 336 h, read-out: percent postemergent control
How it was run: (§1)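 Compounds in acetone mixed 1:1 with water containing 0.1% surfactant, sprayed postemergence on greenhouse plants at the 2-4 leaf stage. Growth reduction versus untreated plants of the same species scored after about two weeks.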

[2] = test system: rape; test: Postemergent control of plant species; assay type: in vivo, Brassica napus; settings: for plant injury at 500 ppm: Brassica napus, post-emergence, 336 h, read-out: percent postemergent control
How it was run: as §1

[3] = test system: yellow nutsedge; test: Control of aquatic plant species (paddy water); assay type: in vivo, Cyperus esculentus; settings: nine days
How it was run: (§2)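 Plants transplanted at 1-2 inch stage into soil, flooded about 1 inch deep; acetone concentrate of compound injected into paddy water at varied volumes to set concentration. Percent control scored nine days after application.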

[4] = test system: wheat; test: Postemergent control of plant species; assay type: in vivo, Triticum aestivum; settings: for plant injury at 500 ppm: Triticum aestivum, post-emergence, 336 h, read-out: percent postemergent control
How it was run: as §1

[5] = test system: rice; test: Control of aquatic plant species (paddy water); assay type: in vivo, Oryza sativa; settings: nine days
How it was run: as §2

[6] = test system: cocklebur; test: Postemergent control of plant species; assay type: in vivo, Xanthium spp.; settings: for pest or weed control at 500 ppm: Xanthium strumarium, post-emergence, 336 h, read-out: percent postemergent control
How it was run: as §1

[7] = test system: cotton; test: Postemergent control of plant species; assay type: in vivo, Gossypium spp.; settings: for plant injury at 500 ppm: Gossypium hirsutum, post-emergence, 336 h, read-out: percent postemergent control
How it was run: as §1

[8] = test system: wild oats; test: Postemergent control of plant species; assay type: in vivo, Avena fatua; settings: for pest or weed control at 500 ppm: Avena fatua, post-emergence, 336 h, read-out: percent postemergent control
How it was run: as §1

[9] = test system: barnyardgrass; test: Control of aquatic plant species (paddy water); assay type: in vivo, Echinochloa crusgalli; settings: nine days
Protocol: In testing for such utility, the plant species to be tested were transplanted into 16 oz. containers into about 2 inches of soil when they were in the 1-2 inch stage and then flooded to a depth of about 1 inch. An acetone concentrate of the chemical to be tested was then injected into the paddy water, the volume injected being varied as desired to provide the desired concentration. Percent control was evaluated nine days after application.

[10] = test system: pigweed; test: Postemergent control of plant species; assay type: in vivo, Amaranthus spp.; settings: for pest or weed control at 500 ppm: Amaranthus retroflexus, post-emergence, 336 h, read-out: percent postemergent control
How it was run: as §1

[11] = test system: rice; test: Postemergent control of plant species; assay type: in vivo, Oryza sativa; settings: for plant injury at 500 ppm: Oryza sativa, post-emergence, 336 h, read-out: percent postemergent control
How it was run: as §1

[12] = test system: yellow foxtail; test: Postemergent control of plant species; assay type: in vivo, Setaria lutescens; settings: for pest or weed control at 500 ppm: Setaria, post-emergence, 336 h, read-out: percent postemergent control
How it was run: as §1

[13] = test system: crabgrass; test: Postemergent control of plant species; assay type: in vivo, Digitaria spp.; settings: for pest or weed control at 500 ppm: Digitaria sanguinalis, post-emergence, 336 h, read-out: percent postemergent control
How it was run: as §1

[14] = test system: nitrification of ammonium nitrogen; test: Suppression of nitrification of ammonium nitrogen in soil; settings: 27° C.
How it was run: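 Soil (20 g) moistened to its 1/3 bar tension value, mixed with test chemical and incubated sealed for two weeks at 27° C. Nitrate extracted with ammonium sulfate solution and measured by nitrate-specific ion electrode; value given as % NH4-N remaining.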

[15] = test system: johnson grass; test: Postemergent control of plant species; assay type: in vivo, Sorghum halepense; settings: for pest or weed control at 500 ppm: Sorghum halepense, post-emergence, 336 h, read-out: percent postemergent control
How it was run: as §1

[16] = test system: barnyardgrass; test: Postemergent control of plant species; assay type: in vivo, Echinochloa crusgalli; settings: for pest or weed control at 500 ppm: Echinochloa crus-galli, post-emergence, 336 h, read-out: percent postemergent control
How it was run: as §1

[17] = test system: sorghum; test: Postemergent control of plant species; assay type: in vivo, Sorghum vulgare; settings: for plant injury at 500 ppm: Sorghum, post-emergence, 336 h, read-out: percent postemergent control
How it was run: as §1

[18] = test system: velvetleaf; test: Postemergent control of plant species; assay type: in vivo, Abutilon theophrasti; settings: for pest or weed control at 500 ppm: Abutilon theophrasti, post-emergence, 336 h, read-out: percent postemergent control
How it was run: as §1

[19] = test system: corn; test: Postemergent control of plant species; assay type: in vivo, Zea mays; settings: for plant injury at 500 ppm: Zea mays, post-emergence, 336 h, read-out: percent postemergent control
How it was run: as §1

[20] = test system: soybean; test: Postemergent control of plant species; assay type: in vivo, Glycine max.; settings: for plant injury at 500 ppm: Glycine max, post-emergence, 336 h, read-out: percent postemergent control
How it was run: as §1

[21] = test system: sugar beet; test: Postemergent control of plant species; assay type: in vivo, Beta saccharifera; settings: for plant injury at 500 ppm: Beta vulgaris, post-emergence, 336 h, read-out: percent postemergent control
How it was run: as §1

[22] = test system: sprangletop; test: Control of aquatic plant species (paddy water); assay type: in vivo, Leptochloa filiformis; settings: nine days
How it was run: as §2

[23] = test system: annual morning glory; test: Postemergent control of plant species; assay type: in vivo, Ipomoea spp.; settings: for pest or weed control at 500 ppm: Ipomoea, post-emergence, 336 h, read-out: percent postemergent control
How it was run: as §1

[24] = test system: yellow nutsedge; test: Postemergent control of plant species; assay type: in vivo, Cyperus esculentus; settings: for pest or weed control at 500 ppm: Cyperus, post-emergence, 336 h, read-out: percent postemergent control
How it was run: as §1

Cc1cc(C)n2nc(S(=O)(=O)Nc3c(C)cccc3C)nc2n1 [Compound 32, 5,7-dimethyl-N-(2,6-dimethylphenyl)-1,2,4-triazolo[1,5-a]pyrimidine-2-sulfonamide]
pest or weed control at 500 ppm [1]: 60%
plant injury at 500 ppm [2]: 0%
pest or weed control at 500 g/ha ([3]; Cyperus, 216 h, 0.5 Kg/Ha, read-out: Percent control): 95%
plant injury at 500 ppm [4]: 30%
pest or weed control at 500 g/ha ([5]; Oryza sativa, 216 h, 0.5 Kg/Ha, read-out: Percent control): 93%
pest or weed control at 500 ppm [6]: 15%
plant injury at 500 ppm [7]: 20%
pest or weed control at 500 ppm [8]: 0%
pest or weed control at 500 g/ha ([9]; Echinochloa crus-galli, 216 h, 0.5 Kg/Ha, read-out: Percent control): 97%
pest or weed control at 500 ppm [10]: 0%
plant injury at 500 ppm [11]: 10%
pest or weed control at 500 ppm [12]: 10%
pest or weed control at 500 ppm [13]: 10%
% NH4-N Remaining After 2 Weeks Incubation ([14]; 0.01 ppm): 0%
% NH4-N Remaining After 2 Weeks Incubation ([14]; 0.1 ppm): 33%
% NH4-N Remaining After 2 Weeks Incubation ([14]; 1 ppm): 82%
% NH4-N Remaining After 2 Weeks Incubation ([14]; 10 ppm): 100%
pest or weed control at 500 ppm [15]: 95%
pest or weed control at 500 ppm [16]: 0%
plant injury at 500 ppm [17]: 0%
pest or weed control at 500 ppm [18]: 50%
plant injury at 500 ppm [19]: 0%
plant injury at 500 ppm [20]: 15%
plant injury at 500 ppm [21]: 30%
pest or weed control at 500 g/ha ([22]; Leptochloa filiformis, 216 h, 0.5 Kg/Ha, read-out: Percent control): 95%
pest or weed control at 500 ppm [23]: 0%
pest or weed control at 500 ppm [24]: 0%

Cc1nc2nc(S(=O)(=O)Nc3c(Cl)cccc3Cl)nn2c2c1CCC2 [Compound 108, 6,7-cyclopentano-5-methyl-N-(2,6-dichlorophenyl)-1,2,4-triazolo[1,5-a]pyrimidine-2-sulfonamide]
percent postemergent control ([1]; 500 ppm): 30%
percent postemergent control ([2]; 500 ppm): 40%
Percent control ([3]; 1.0 Kg/Ha): 90%
percent postemergent control ([4]; 500 ppm): 60%
Percent control ([5]; 1.0 Kg/Ha): 97%
percent postemergent control ([6]; 500 ppm): 80%
percent postemergent control ([7]; 500 ppm): 70%
percent postemergent control ([8]; 500 ppm): 0%
Percent control ([9]; 1.0 Kg/Ha): 97%
percent postemergent control ([10]; 500 ppm): 0%
percent postemergent control ([11]; 500 ppm): 0%
percent postemergent control ([12]; 500 ppm): 0%
percent postemergent control ([13]; 500 ppm): 0%
% NH4-N Remaining After 2 Weeks Incubation ([14]; 0.01 ppm): 43%
% NH4-N Remaining After 2 Weeks Incubation ([14]; 0.1 ppm): 69%
% NH4-N Remaining After 2 Weeks Incubation ([14]; 1 ppm): 84%
% NH4-N Remaining After 2 Weeks Incubation ([14]; 10 ppm): 90%
percent postemergent control ([15]; 500 ppm): 100%
percent postemergent control ([16]; 500 ppm): 100%
percent postemergent control ([17]; 500 ppm): 80%
percent postemergent control ([18]; 500 ppm): 90%
percent postemergent control ([19]; 500 ppm): 80%
percent postemergent control ([20]; 500 ppm): 75%
percent postemergent control ([21]; 500 ppm): 70%
Percent control ([22]; 1.0 Kg/Ha): 97%
percent postemergent control ([23]; 500 ppm): 10%
percent postemergent control ([24]; 500 ppm): 35%

Cc1cc(C)n2nc(S(=O)(=O)Nc3cccc(Cl)c3)nc2n1 [Compound 17]
pest or weed control at 500 ppm [1]: 0%
plant injury at 500 ppm [2]: 70%
pest or weed control at 4000 g/ha ([3]; Cyperus, 216 h, 4.0 Kg/Ha, read-out: Percent control): 90%
plant injury at 500 ppm [4]: 0%
pest or weed control at 4000 g/ha ([5]; Oryza sativa, 216 h, 4.0 Kg/Ha, read-out: Percent control): 97%
pest or weed control at 500 ppm [6]: 10%
plant injury at 500 ppm [7]: 15%
pest or weed control at 500 ppm [8]: 0%
pest or weed control at 4000 g/ha ([9]; Echinochloa crus-galli, 216 h, 4.0 Kg/Ha, read-out: Percent control): 40%
pest or weed control at 500 ppm [10]: 50%
plant injury at 500 ppm [11]: 0%
pest or weed control at 500 ppm [12]: 20%
pest or weed control at 500 ppm [13]: 0%
% NH4-N Remaining After 2 Weeks Incubation ([14]; 0.01 ppm): 0%
% NH4-N Remaining After 2 Weeks Incubation ([14]; 0.1 ppm): 1%
% NH4-N Remaining After 2 Weeks Incubation ([14]; 1 ppm): 38%
% NH4-N Remaining After 2 Weeks Incubation ([14]; 10 ppm): 80%
pest or weed control at 500 ppm [15]: 60%
pest or weed control at 500 ppm [16]: 0%
plant injury at 500 ppm [17]: 40%
pest or weed control at 500 ppm [18]: 70%
plant injury at 500 ppm [19]: 20%
plant injury at 500 ppm [20]: 15%
plant injury at 500 ppm [21]: 10%
pest or weed control at 4000 g/ha ([22]; Leptochloa filiformis, 216 h, 4.0 Kg/Ha, read-out: Percent control): 0%
pest or weed control at 500 ppm [23]: 0%
pest or weed control at 500 ppm [24]: 0%

COC(=O)c1ccccc1NS(=O)(=O)c1nc2nc(C)cc(C)n2n1 [Compound 10, methyl N-(5,7-dimethyl-1,2,4-triazolo[1,5-a]pyrimidine-2-sulfonyl)anthranilate]
pest or weed control at 500 ppm [1]: 0%
plant injury at 500 ppm [2]: 10%
pest or weed control at 1000 g/ha ([3]; Cyperus, 216 h, 1.0 Kg/Ha, read-out: Percent control): 90%
plant injury at 500 ppm [4]: 0%
pest or weed control at 1000 g/ha ([5]; Oryza sativa, 216 h, 1.0 Kg/Ha, read-out: Percent control): 93%
pest or weed control at 500 ppm [6]: 15%
plant injury at 500 ppm [7]: 0%
pest or weed control at 500 ppm [8]: 0%
pest or weed control at 1000 g/ha ([9]; Echinochloa crus-galli, 216 h, 1.0 Kg/Ha, read-out: Percent control): 90%
pest or weed control at 500 ppm [10]: 20%
pest or weed control at 500 ppm [12]: 0%
pest or weed control at 500 ppm [13]: 0%
% NH4-N Remaining After 2 Weeks Incubation ([14]; 0.01 ppm): 0%
% NH4-N Remaining After 2 Weeks Incubation ([14]; 0.1 ppm): 0%
% NH4-N Remaining After 2 Weeks Incubation ([14]; 1 ppm): 27%
% NH4-N Remaining After 2 Weeks Incubation ([14]; 10 ppm): 70%
pest or weed control at 500 ppm [15]: 0%
pest or weed control at 500 ppm [16]: 0%
plant injury at 500 ppm [17]: 0%
pest or weed control at 500 ppm [18]: 0%
plant injury at 500 ppm [19]: 0%
plant injury at 500 ppm [20]: 20%
plant injury at 500 ppm [21]: 60%
pest or weed control at 1000 g/ha ([22]; Leptochloa filiformis, 216 h, 1.0 Kg/Ha, read-out: Percent control): 50%
pest or weed control at 500 ppm [23]: 0%
pest or weed control at 500 ppm [24]: 0%

Reference: patent US4740233A, “Substituted 1,2,4-triazolo[1,5-a]-pyrimidine-2-sulfonamides and compositions and methods of controlling undesired vegetation and suppressing the nitrification of ammonium nitrogen in soil” (The Dow Chemical Company, priority 1986, dated 1988)
